In patent EP4813383A1, “USE OF TAFAMIDIS AND PHARMACEUTICALLY ACCEPTABLE SALT THEREOF IN PREVENTION, ALLEVIATION, OR TREATMENT OF DISEASES ASSOCIATED WITH HIF-2a” (Huaya Jiyuan (Shenzhen) Pharmaceutical Co., Ltd., priority 2024, dated 2025):

Key:
[1] = tested on: Cisplatin-induced renal injury and anemia rat model; assay: Cisplatin-induced renal injury and anemia rat model; type: in vivo, Male Sprague-Dawley (SD) rats
Description: Male Sprague-Dawley (SD) rats are allowed a one-week acclimation period, after which cisplatin (6 mg/kg) is administered through tail vein injection. A second injection is given one week later. Two weeks after the first administration, successful establishment of a renal disease model is confirmed by measuring serum creatinine and urea levels. The established rat model is randomly divided into four groups: a control group (n = 7), a cisplatin group (n = 6), a roxadustat group (n = 6), and a tafamidis group (n = 6). The roxadustat group and tafamidis group are orally administered the corresponding compound (roxadustat or tafamidis) at 10 mg/kg daily for four consecutive weeks. A corresponding solvent is administered to the control group and cisplatin group rat models based on the same dosing regimen. Urine samples are collected on the day following the final treatment, so as to measure UTP and UCREA. Hematological analysis is performed using a Mindray BC-5150 automated hematology analyzer, and urinalysis is performed using a Mindray BS-2000M automated biochemical analyzer, both using commercially available kits according to the manufacturers' instructions. After sample collection, the rats are euthanized. Statistical significance is determined by one-way analysis of variance (ANOVA), and then a Dunnett's test is performed for comparison with the cisplatin group (*P < 0.05, **P < 0.01, ***P < 0.001).
Left kidney samples collected from cisplatin-induced rats are fixed in 4% paraformaldehyde, dehydrated, embedded in paraffin, and sectioned. The tissue sections are 4 µm thick, and are subsequently subjected to histochemical staining such as hematoxylin-eosin (H&E), periodic acid-Schiff (PAS), and Masson's trichrome staining. After staining, the sections are scanned using advanced three-dimensional histological imaging technology, and high-resolution images are captured using a Pannoramic DESK/MIDI/250/1000 system. To evaluate renal tubular injury, 10 fields are randomly selected from each sample, and examined at a 40× magnification. The degree of renal tubular injury is assessed using a semi-quantitative scoring system (Paller score): 0 (no injury), 1 (<25% injury), 2 (25% to 50% injury), 3 (50% to 75% injury), and 4 (>75% injury). In addition, the entire tissue section is assessed at a 0.7× magnification to determine the extent of collagen fiber deposition shown by Masson's trichrome staining. Semi-quantitative analysis of the collagen fiber area is performed using Image-Pro Plus 6.0 software (Media Cybernetics, Rockville, MD, USA). For glomerular evaluation, 20 glomeruli are randomly selected from each rat and analyzed at a 63× magnification, using mesangial matrix expansion shown by PAS staining as an indicator. Semi-quantitative analysis of the mesangial matrix is likewise performed using Image-Pro Plus 6.0 software. Statistical significance is determined by one-way analysis of variance (ANOVA), and then a Dunnett's test is performed for comparison with the cisplatin group (*P < 0.05, **P < 0.01, ***P < 0.001).
Immunofluorescence staining is performed on 4 µm-thick kidney tissue sections. The sections are deparaffinized and rehydrated through ethanol, and then is subjected to microwave treatment in a 0.01 mol/L sodium citrate buffer (pH 6.0) for antigen retrieval. Subsequently, the sections are incubated overnight at 4 °C with a primary antibody against α-SMA (19245S, Cell Signaling Technology). After incubation, the sections is incubated at room temperature for 30 minutes with an HRP-conjugated secondary antibody (PK10009, Proteintech Group), and localization is performed using a DAB kit. After staining, the sections are scanned using advanced three-dimensional histological imaging technology, and high-resolution images are captured using a Pannoramic DESK/MIDI/250/1000 system. The entire tissue section is assessed at a 0.7× magnification to determine an α-SMA-positive region. […]

[2] = tested on: aristolochic acid-induced zebrafish model; assay: Aristolochic acid-induced zebrafish chronic kidney disease model: renal edema incidence; type: in vivo, Wild-type AB strain zebrafish; details: 1 µM in aqueous solution, 30 hours; model group 100%
Description: Wild-type AB strain zebrafish at 2 days post-fertilization (2 dpf) are randomly selected and placed in a 6-well plate, with 30 zebrafish treated in each well (treatment group). Other than the normal control group, all treatment groups are exposed to aristolochic acid in aqueous solution to establish a zebrafish renal anemia model. After treatment at 28 °C for 18 hours, a normal control group and a model control group are set up simultaneously. Tafamidis samples are administered in aqueous solution to the treatment groups separately (at concentrations of 20 µM, 10 µM, and 1 µM separately, each concentration being tested in triplicate). Water is administered to the normal control group and the model control group correspondingly, with a volume of 3 mL per well.

[3] = tested on: aristolochic acid-induced zebrafish model; assay: Aristolochic acid-induced zebrafish model: glomerular filtration (whole-body fluorescence of tracer); type: in vivo, Wild-type AB strain zebrafish; details: 1 µM in aqueous solution; normal group 100%, model group 239%
Description: Wild-type AB strain zebrafish at 2 days post-fertilization are randomly selected and placed in a 6-well plate, with 30 zebrafish treated in each well (treatment group). Other than the normal control group, all treatment groups are exposed to aristolochic acid in aqueous solution to establish a zebrafish renal anemia model. After treatment at 28 °C for 18 hours, a normal control group and a model control group are set up simultaneously. Tafamidis samples are administered in aqueous solution to the treatment groups separately (at concentrations of 0.1 µM and 1 µM separately). Water is administered to the normal control group and the model control group correspondingly, with a volume of 3 mL per well. After continued treatment at 28 °C for 4 hours, all treatment groups are intravenously injected with a fluorescent tracer (dextran tetramethylrhodamine). After a further 1 day of treatment at 28 °C, 10 zebrafish are randomly selected from each treatment group and photographed under a fluorescence microscope. Data are analyzed and collected using NIS-Elements D 3.20 advanced image processing software, and whole-body fluorescence intensity in the zebrafish is analyzed. Statistical analysis of this indicator is used to evaluate the efficacy of the samples in repairing renal injury. Statistical results are expressed as mean±SE. […]

[4] = tested on: vascular endothelial growth factor (VEGF) gene expression; assay: qRT-PCR assay of VEGF gene expression in 786-O renal carcinoma cells; type: cell-based; details: 24 hours, relative to the vehicle, GAPDH internal control
Description: Experimental method: 786-O renal carcinoma cells are seeded into a 12-well plate. After 24 hours, tafamidis is added at different concentrations (1 µM, 10 µM, and 20 µM, separately), and the cells are co-incubated with the compound for 24 hours. No treatment is applied to the vehicle group. RNA is extracted using a TRIZOL reagent. cDNA transcription is performed using an All-in-one™ First-Strand cDNA Synthesis Kit (for specific operating procedures, see the manufacturer's instructions). A SYBR reagent is used for fluorescence signal detection, and GAPDH is used as an internal control. The qRT-PCR primers are as follows: • GAPDH_fwd, […]; • GAPDH_rev, TGGTGAAGACGCCAGTGGA; • VEGF_fwd, […]; • VEGF_rev, […]; • EPO_fwd, […]; • EPO_rev, […].

[5] = 10 mg/kg daily oral for four weeks, urine, versus cisplatin group
[6] = 10 mg/kg daily oral for four weeks, kidney tissue
[7] = 10 mg/kg daily oral for four weeks, urine, versus cisplatin group, p < 0.05

SMILES	UTP levels [1, 5]	renal edema incidence [2]	glomerular filtration rate [3]	upregulates vascular endothelial growth factor (VEGF) gene expression ([4]; 10 µM)	upregulates VEGF gene expression ([4]; 20 µM)	erythropoietin (EPO) protein levels, Western blot [1, 6]	α-SMA protein expression, Western blot [1, 6]	cisplatin-induced renal injury, semi-quantitative scoring (H&E, Masson's trichrome, PAS) ([1]; 10 mg/kg daily oral for four weeks, left kidney sections)	UCREA levels [1, 7]	UTP/UCREA ratio [1, 7]	Gross observation of kidney tissues (color) ([1]; 10 mg/kg daily oral for four weeks, normal control healthy red, cisplatin group white discoloration and edema)	Red blood cells (RBCs) ([1]; 10 mg/kg daily oral, week 4, cisplatin group 6.3 ± 0.3 ×10^12, p < 0.001)	Hematocrit (HCT) ([1]; 10 mg/kg daily oral, week 4, cisplatin group 46.2 ± 1.8%, p < 0.001)	Hemoglobin (HGB) ([1]; 10 mg/kg daily oral, week 4, cisplatin group 127.7 ± 4.7, p < 0.05)
Cc1nc(C(=O)NCC(=O)O)c(O)c2ccc(Oc3ccccc3)cc12 [roxadustat]	increases													
O=C(O)c1ccc2nc(-c3cc(Cl)cc(Cl)c3)oc2c1 [tafamidis, 2-(3,5-dichlorophenyl)-1,3-benzoxazole-6-carboxylic acid]	little effect	80%	158%	0.5 fold	1.4 fold	increasing	significantly reduces	significantly alleviates	increases	reducing	normal red color	8.1 ± 0.4 × 10^12 cells/L	58.4 ± 2.9%	161.8 ± 9.3 g/L
